The values that follow come from patent publication US8193350B2, “Fluorescent compound and labeling agent comprising the same” (Keio University, priority 2006, dated 2012).

Values joined by “and” are separate entries in the source; they are usually repeats but may differ in a detail not shown here. Equal entries are not always repeated. Where two headings read alike, the source gives them in different places. Marks after values point to notes of the source that are not given here.

For data set [1] the following is noted: cited from earlier work.
The nature of data set [2]: Optical properties: absorption and fluorescence emission spectra. It is filed as physicochemical.
The nature of data set [3]: Light fastness test: change of absorbance with time under the light of daily life. It is filed as physicochemical. As to conditions: acetonitrile. On the procedure:
An experiment testing the light fastness of fluorescent compound 8 and Cy7 (trade name, 1-[3-(4-monomethoxytrityloxy)propyl]-1′-[3-[(2-cyanoethyl)-(N,N-diisopropyl)phosphoramidityl]propyl]-3,3,3′,3′-tetramethylindotricarbocyanine chloride) was carried out.
Fluorescent compound 8 and Cy7 (trade name) were respectively dissolved in acetonitrile to a concentration attaining an absorbance of 0.1. The solutions were left to stand under the same conditions (more specifically, under the light of daily life without light shading, and the absorbance was measured every day (or every other day). The change with time of the measured absorbance was graphed taking the relative absorbance (taking the absorbance before leaving to stand as 100%) along the ordinate and taking the days along the abscissa.

[4] abbreviates: CHCl3, reference N,N′-bis(1-hexylheptyl)-perylene dye (Φ=1.00 in CH2Cl2).
Setting [5] is: CHCl3, reference 3,3′-diethyl-dithiazylcarbocyanine, excitation 650 nm, containing error of 10%.
Where [6] appears, read: MeOH, reference 3,3′-diethyl-dithiazylcarbocyanine, excitation 650 nm, containing error of 10%.

Take “1-[3-(4-monomethoxytrityloxy)propyl]-1′-[3-[(2-cyanoethyl)-(N,N-diisopropyl)phosphoramidityl]propyl]-3,3,3′,3′-tetramethylindodicarbocyanine chloride [Cy5, reference compound]”: the “Φ (fluorescence quantum yield)” value in data set [1] (the value in PBS obtained from Amersham Biosciences) is 0.27^a. Moreover, in data set [2] (MeOH), the “fwhm (full width at half maximum height)” value is 29 nm, the “ε (molar extinction coefficient)” value is 250,000 M^−1cm^−1, the “λabs (maximum absorption wavelength)” value is recorded as 648 nm and the “λflu (maximum fluorescence wavelength)” value turned out to be 670 nm.
As for `CCN1C(=CC=Cc2sc3ccccc3[n+]2CC)Sc2ccccc21` [3,3′-diethyl-dithiazylcarbocyanine], in data set [1] (in MeOH), the “Φ of reference dye” value was 0.33.
`COc1ccc(C(OCCC[N+]2=C(C=CC=CC=CC=C3N(CCCOP(OCCC#N)N(C(C)C)C(C)C)c4ccccc4C3(C)C)C(C)(C)c3ccccc32)(c2ccccc2)c2ccccc2)cc1.[Cl-]` (centres unmarked) [Cy7, 1-[3-(4-monomethoxytrityloxy)propyl]-1′-[3-[(2-cyanoethyl)-(N,N-diisopropyl)phosphoramidityl]propyl]-3,3,3′,3′-tetramethylindotricarbocyanine chloride]: the “light fastness (in words)” value in data set [3] (light of daily life, 1 week) is “very poor”. Also, the “relative absorbance retained (absorbance before leaving to stand as 100%)” value in data set [3] (under the light of daily life without light shading, after 1 week) is listed as at most 10%.
Turning to `CCCCC(CCCC)Oc1cc(C)c(C2=C3C=c4sc(C)cc4=[N+]3[B-](F)(F)n3c2cc2sc(C)cc23)c(C)c1` [Fluorescent Compound 3], in data set [2] (CHCl3), the “fwhm (full width at half maximum height)” value came out at 20 nm, the “ε (molar extinction coefficient)” value is on record as 170,000 M^−1cm^−1, the “λabs (maximum absorption wavelength)” value stood at 586 nm and the “λflu (maximum fluorescence wavelength)” value came out at 596 nm. Moreover, in data set [2] (setting [4]), the “Φ (fluorescence quantum yield)” value amounted to 0.39.
As to `CCCCC(CCCC)Oc1cc(C)c(C2=C3C=c4oc(-c5ccc(OC)cc5)cc4=[N+]3[B-](F)(F)n3c2cc2oc(-c4ccc(OC)cc4)cc23)c(C)c1` [Fluorescent Compound 5], in data set [2], the “shift of maximum absorption wavelength to longer wavelength compared with boron dipyrromethene (R1=R3=R5=R7=Me)” value (from here on “shift … (R1=R3=R5=R7=Me)”) was “about 170 nm” and the “shift of maximum absorption wavelength to longer wavelength compared with fluorescent compound 2” value (shortened to “shift … with fluorescent compound 2”) is given as “about 90 nm”. In data set [2] (CHCl3), the “fwhm (full width at half maximum height)” value came to 28 nm, the “ε (molar extinction coefficient)” value was 190,000 M^−1cm^−1, the “λabs (maximum absorption wavelength)” value turned out to be 673 nm and the “λflu (maximum fluorescence wavelength)” value worked out at 685 nm. The “Φ (fluorescence quantum yield)” value in data set [2] (setting [4]) is 0.68. For the same compound, in data set [2] (MeOH), the “fwhm (full width at half maximum height)” value is listed as 29 nm, the “ε (molar extinction coefficient)” value is 200,000 M^−1cm^−1, the “λabs (maximum absorption wavelength)” value was determined as 664 nm and the “λflu (maximum fluorescence wavelength)” value came to 679 nm. The “Φ (fluorescence quantum yield)” value in data set [2] (MeOH, reference N,N′-bis(1-hexylheptyl)-perylene dye (Φ=1.00 in CH2Cl2)) is listed as 0.63. Moreover, in data set [2] (THF), the “fwhm (full width at half maximum height)” value is listed as 27 nm, the “ε (molar extinction coefficient)” value is on record as 190,000 M^−1cm^−1, the “λabs (maximum absorption wavelength)” value was determined as 669 nm and the “λflu (maximum fluorescence wavelength)” value came to 680 nm. Moreover, in data set [2] (THF, reference N,N′-bis(1-hexylheptyl)-perylene dye (Φ=1.00 in CH2Cl2)), the “Φ (fluorescence quantum yield)” value is listed as 0.67. In addition, the “fwhm, summary in text of the values in Table 1” value in data set [2] (all solvents of Table 1) was “about 30 nm”.
`COc1ccc(-c2cc3c(o2)=CC2=Cc4cc5oc(-c6ccc(OC)cc6)cc5n4[B-](F)(F)[N+]=32)cc1` [Fluorescent Compound 6]: in data set [2], the “shift … (R1=R3=R5=R7=Me)” value is “about 170 nm”. The “shift … with fluorescent compound 2” value in data set [2] is reported as “about 90 nm”. Moreover, the “fwhm (full width at half maximum height)” value is 24 nm in data set [2] (CHCl3), 26 nm in data set [2] (MeOH) and 24 nm in data set [2] (THF). The “λabs (maximum absorption wavelength)” value in data set [2] (CHCl3) is 683 nm and 673 nm; in data set [2] (MeOH) it was 659 nm; in data set [2] (THF) it was 665 nm. In addition, the results for the “λflu (maximum fluorescence wavelength)” value in data set [2] (CHCl3), in data set [2] (MeOH) and in data set [2] (THF) were 683 nm, 672 nm and 674 nm, respectively. Also, the “ε (molar extinction coefficient)” value in data set [2] (CHCl3, containing error of 10% (Table 4)) was 240,000 M^−1cm^−1. Besides, the “Φ (fluorescence quantum yield)” value in data set [2] (setting [5]) is recorded as 0.69; in data set [2] (setting [6]) it was 0.58; in data set [2] (THF, reference 3,3′-diethyl-dithiazylcarbocyanine, excitation 650 nm, containing error of 10%), 0.63.
On to `COc1ccc(OC)c(-c2cc3c(o2)=CC2=Cc4cc5oc(-c6cc(OC)ccc6OC)cc5n4[B-](F)(F)[N+]=32)c1` [Fluorescent Compound 7], for which, in data set [2], the “shift … (R1=R3=R5=R7=Me)” value is recorded as “about 170 nm” and the “shift … with fluorescent compound 2” value is “about 90 nm”. For the same compound, in data set [2] (CHCl3), the “fwhm (full width at half maximum height)” value is 24 nm; the “λabs (maximum absorption wavelength)” value was 688 nm and 678 nm; the “λflu (maximum fluorescence wavelength)” value was 688 nm. Besides, the “Φ (fluorescence quantum yield)” value in data set [2] (setting [5]) turned out to be 0.51. In data set [2] (MeOH), the “fwhm (full width at half maximum height)” value is given as 28 nm, the “λabs (maximum absorption wavelength)” value was determined as 662 nm and the “λflu (maximum fluorescence wavelength)” value is listed as 674 nm. Besides, in data set [2] (setting [6]), the “Φ (fluorescence quantum yield)” value was 0.54.
